Source: the supplement of paper PMC10307832

Columns and labels:
Test in all cases: relative viability (nuclei count vs DMSO), 5 days (fraction); higher = more cells survive
[1] = compound: COc1cc(-c2nn([C@H]3CC[C@H](N4CCN(C(C)=O)CC4)CC3)c3ncnc(N)c23)ccc1NC(=O)c1cc2ccccc2n1C + CC(C)C[C@H](NC(=O)[C@H](Cc1ccccc1)NC(=O)c1cnccn1)B(O)O [Bortezomib] (partner 0.002 µM)
Procedure, shortened: (§1)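 Five library-drug doses in √10 steps were combined with a fixed anchor-drug dose, or a single drug was given alone, by pin tool to lung cancer cell lines in 1536-well plates the day after seeding. Nuclei were stained and counted after 5 days. Relative viability is the nuclei count in treated wells over that in vehicle wells, taken as the median of duplicate plates.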

[2] = compound: COc1cc(-c2nn([C@H]3CC[C@H](N4CCN(C(C)=O)CC4)CC3)c3ncnc(N)c23)ccc1NC(=O)c1cc2ccccc2n1C + CS(=O)(=O)CCNCc1ccc(-c2ccc3ncnc(Nc4ccc(OCc5cccc(F)c5)c(Cl)c4)c3c2)o1 [Lapatinib] (partner 2 µM)
Procedure, shortened: as §1

[3] = compound: CO[C@@H]1[C@H](N(C)C(=O)c2ccccc2)C[C@H]2O[C@]1(C)n1c3ccccc3c3c4c(c5c6ccccc6n2c5c31)C(=O)NC4 [Midostaurin] + Nc1nc2[nH]cc(CCc3ccc(C(=O)N[C@@H](CCC(=O)O)C(=O)O)cc3)c2c(=O)[nH]1 [Pemetrexed] (partner 0.2 µM)
Procedure, shortened: as §1

[4] = compound: COc1cc(-c2nn([C@H]3CC[C@H](N4CCN(C(C)=O)CC4)CC3)c3ncnc(N)c23)ccc1NC(=O)c1cc2ccccc2n1C + CS(=O)(=O)N1CCN(Cc2cc3nc(-c4cccc5[nH]ncc45)nc(N4CCOCC4)c3s2)CC1 [Pictilisib] (partner 1 µM)
Procedure, shortened: as §1

[5] = compound: CO[C@@H]1[C@H](N(C)C(=O)c2ccccc2)C[C@H]2O[C@]1(C)n1c3ccccc3c3c4c(c5c6ccccc6n2c5c31)C(=O)NC4 [Midostaurin] + O=C(c1cc(Cc2n[nH]c(=O)c3ccccc23)ccc1F)N1CCN(C(=O)C2CC2)CC1 [Olaparib] (partner 8 µM)
Procedure, shortened: as §1

Cell Line	relative viability ([1]; first compound 0.0128 µM)	relative viability ([1]; first compound 0.04048 µM)	relative viability ([1]; first compound 0.128 µM)	relative viability ([1]; first compound 1.28 µM)	relative viability ([2]; first compound 0.0128 µM)	relative viability ([2]; first compound 0.04048 µM)	relative viability ([2]; first compound 0.128 µM)	relative viability ([2]; first compound 1.28 µM)	relative viability ([3]; first compound 0.01 µM)	relative viability ([3]; first compound 0.03162 µM)	relative viability ([3]; first compound 0.1 µM)	relative viability ([3]; first compound 0.3162 µM)	relative viability ([4]; first compound 0.0128 µM)	relative viability ([4]; first compound 0.04048 µM)	relative viability ([4]; first compound 0.128 µM)	relative viability ([4]; first compound 1.28 µM)	relative viability ([5]; first compound 0.01 µM)	relative viability ([5]; first compound 0.03162 µM)	relative viability ([5]; first compound 0.1 µM)	relative viability ([5]; first compound 0.3162 µM)
HARA	1.12	1.16	1.1	0.803	0.888	0.858	0.563	0.813	0.225	0.309	0.222	0.239	0.454	0.395	0.349	0.362	0.786	0.842	0.644	0.752
HCC-15	1.25	1	0.963	1.11	1.08	0.726	0.87	0.896	0.22	0.229	0.238	0.199	0.854	0.369	0.657	0.647	0.747	0.734	0.678	0.641
HCC-44	0.993	0.886	0.897	1.27	1.08	1.21	0.937	1.23	0.604	0.628	0.657	0.663	0.675	0.67	0.542	0.542	0.999	0.957	0.983	1
HCC-78	0.547	0.724	0.566	0.43	0.953	0.85	0.673	0.585	0.926	0.857	0.946	0.865	0.23	0.181	0.21	0.196	0.836	0.753	0.677	0.511
HCC-366	0.951	0.859	1.09	0.849	1.09	0.998	1.07	0.66	0.156	0.15	0.153	0.156	0.09	0.129	0.161	0.141	0.336	0.358	0.302	0.117
HCC-827	0.831	1.17	0.99	0.676	0.192	0.172	0.182	0.204	0.249	0.251	0.241	0.255	1.1	1.22	0.902	0.783	0.582	0.628	0.589	0.654
HOP-62	0.845	0.883	0.992	0.621	1.09	0.891	0.865	1.03	0.332	0.278	0.326	0.41	0.831	0.285	0.738	0.604	0.321	0.452	0.414	0.372
LC-2-ad	1.09	1.12	1.06	1.01	0.988	0.817	0.847	0.961	0.295	0.281	0.25	0.258	0.606	0.009	0.455	0.311	0.738	0.688	0.673	0.691
LCLC-97TM1	0.35	0.327	0.567	0.584	0.922	0.553	0.9	1.08	0.164	0.137	0.193	0.166	0.229	0.107	0.227	0.281	0.52	0.374	0.32	0.464
LOU-NH91	0.498	0.522	0.515	0.518	0.756	0.689	0.747	0.679	0.317	0.399	0.37	0.397	0.517	0.555	0.511	0.509	0.922	0.828	0.88	0.943
LU99A	1.34	1.19	1.04	1.3	1.11	1.1	1.12	0.904	0.182	0.165	0.167	0.224	0.357	0.385	0.391	0.326	0.261	0.295	0.257	0.207
LXF-289	1.07	0.963	1	1.18	1.01	0.86	0.876	1.02	0.891	0.903	0.888	0.896	0.827	0.586	0.775	0.509	1.13	1.05	1.04	0.992
NCI-H23	1.06	0.682	1.18	0.883	1.28	1.03	1.07	1.09	0.635	0.671	0.533	0.458	0.36	0.298	0.403	0.457	0.317	0.296	0.296	0.223
NCI-H322M	1.23	1.52	1.17	1.17	0.627	0.679	0.621	0.474	0.692	0.527	0.677	0.677	0.521	0.449	0.51	0.463	0.703	0.72	0.698	0.779
NCI-H460	1.14	1.26	1.09	0.99	1.05	0.994	0.964	0.741	0.0611	0.0661	0.0666	0.0626	0.164	0.314	0.345	0.368	0.406	0.417	0.314	0.382
NCI-H520	0.741	0.624	0.358	0.334	0.818	0.745	0.685	0.646	0.662	0.723	0.736	0.407	0.293	0.337	0.247	0.216	0.32	0.318	0.266	0.249
NCI-H596	1.03	1.31	0.908	0.954	0.933	1.2	0.933	0.842	0.528	0.551	0.488	0.551	0.412	0.451	0.356	0.44	0.77	0.691	0.722	0.777
NCI-H647	1.13	1.34	0.877	0.588	1.24	0.974	0.981	0.632	0.185	0.2	0.184	0.112	0.41	0.456	0.257	0.28	0.495	0.688	0.455	0.316
NCI-H650	1.17	1.23	0.848	0.867	1.14	1.36	0.843	0.837	0.906	0.892	0.99	0.686	0.944	0.96	0.944	0.866	0.36	0.406	0.412	0.313
NCI-H661	0.879	0.823	0.709	0.384	0.545	0.532	0.469	0.319	0.915	0.82	0.902	0.904	0.39	0.344	0.392	0.254	0.721	0.7	0.714	0.717
NCI-H838	1.18	0.817	0.578	0.628	1.06	1.02	0.913	0.629	0.238	0.236	0.208	0.216	0.403	0.397	0.38	0.338	0.748	0.839	0.511	0.229
NCI-H1355	1.4	1.23	1.22	1.15	1.11	0.928	0.952	0.897	1.04	1.07	1.14	1.09	0.584	0.295	0.412	0.406	0.777	0.78	0.77	0.68
NCI-H1437	0.587	0.522	0.365	0.585	0.901	0.91	0.77	0.764	0.311	0.3	0.332	0.323	0.413	0.514	0.406	0.314	0.618	0.665	0.629	0.516
NCI-H1650	0.225	0.179	0.211	0.205	0.782	0.846	0.69	0.6	0.315	0.415	0.322	0.3	0.548	0.651	0.513	0.547	0.945	0.793	0.727	0.703
NCI-H1651	0.85	0.949	0.939	0.84	0.961	1.03	0.621	0.74	0.626	0.53	0.618	0.675	0.489	0.525	0.483	0.43	0.199	0.2	0.169	0.17
NCI-H1666	0.946	0.859	0.807	0.68	0.712	0.664	0.581	0.509	0.876	0.812	0.74	0.722	0.521	0.367	0.394	0.397	0.709	0.708	0.694	0.673
NCI-H1734	0.995	0.862	1.1	0.756	1.12	1.04	0.959	0.871	0.421	0.405	0.446	0.456	0.47	0.38	0.481	0.362	0.603	0.562	0.62	0.69
NCI-H1755	1.06	0.993	1.03	0.86	1.17	0.967	0.974	1.05	0.447	0.469	0.42	0.431	0.509	0.169	0.402	0.299	0.864	0.884	0.783	0.779
NCI-H1792	1.03	0.883	0.948	0.67	0.83	0.773	0.883	0.755	0.761	0.835	0.756	0.424	0.237	0.191	0.306	0.354	0.383	0.308	0.249	0.146
NCI-H1915	1.05	1.03	0.931	0.929	1.08	1.03	0.992	1.01	0.46	0.472	0.506	0.477	0.968	0.532	0.939	0.879	0.257	0.249	0.243	0.224
